Values joined by “and” are separate entries in the source; they are usually repeats but may differ in a detail not shown here. Equal entries are not always repeated. Records with an inconclusive call do not appear. Where a SMILES comes first, the peptide text is derived from it. The star is where a group is joined. Trt = c1ccc(C(c2ccccc2)(c2ccccc2)*)cc1; Cbz = O=C(OCc1ccccc1)*
Tested on: MX-1 breast xenograft, nude mice, tumor weight T/C
Assay: NCI In Vivo Anticancer Drug Screen. Data for tumor model Human Mammary Carcinoma MX-1 Xenograft (intrarenal inoculation) in NU/NU Swiss (nude) mice
Conditions: endpoint: mean tumor weight change, higher = larger tumour
Method in brief: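 Tumor-bearing mice were treated with test compound alongside a vehicle-treated control group. Survival or tumor size was measured, and activity is expressed as the treated-group value divided by the control-group value.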

[1] = dose: 150.0 mg/kg/injection, schedule: Q04DX003 (sc), vehicle: suspension in saline
[2] = dose: 50.0 mg/kg/injection, schedule: Q01DX010 (sc), vehicle: saline
[3] = dose: 100.0 mg/kg/injection, schedule: Q01DX010 (sc), vehicle: saline
[4] = dose: 6.25 mg/kg/injection, schedule: Q01DX010 (sc), vehicle: saline
[5] = dose: 25.0 mg/kg/injection, schedule: Q01DX010 (sc), vehicle: saline
[6] = dose: 300.0 mg/kg/injection, schedule: Q04DX003 (sc), vehicle: saline with Tween-80
[7] = dose: 600.0 mg/kg/injection, schedule: Q04DX003 (sc), vehicle: saline with Tween-80
[8] = dose: 1200.0 mg/kg/injection, schedule: Q04DX003 (sc), vehicle: saline with Tween-80
[9] = dose: 2400.0 mg/kg/injection, schedule: Q04DX003 (sc), vehicle: saline with Tween-80

CC(=O)O[C@@H]1[C@@H](O)C2=C3[C@]4(C)[C@@H]1C(C)(C)C(=O)C[C@@H]4[C@]3(O)[C@H](OC(C)=O)[C@@]1(C[C@@H]1C)C2=O
T/C (dose: 12.5 mg/kg/injection, schedule: Q01DX010 (sc), vehicle: saline with Tween-80): 106 % of control
T/C (dose: 25.0 mg/kg/injection, schedule: Q01DX010 (sc), vehicle: saline with Tween-80): 114 % of control
T/C (dose: 50.0 mg/kg/injection, schedule: Q01DX010 (sc), vehicle: saline with Tween-80): 319 % of control

COC1=NCN=C2SC=C(N)N=C12
T/C (dose: 37.5 mg/kg/injection, schedule: Q04DX003 (sc), vehicle: suspension in saline): 50 % of control
T/C (dose: 75.0 mg/kg/injection, schedule: Q04DX003 (sc), vehicle: suspension in saline): 30 % of control
T/C [1]: 43 % of control

CC(=O)NCCCCCCNC(C)=O
T/C [2]: 163 % of control
T/C [3]: 124 % of control
T/C (dose: 200.0 mg/kg/injection, schedule: Q01DX010 (sc), vehicle: saline): 103 % of control and 111 % of control
T/C (dose: 400.0 mg/kg/injection, schedule: Q01DX010 (sc), vehicle: saline): 84 % of control
T/C (dose: 800.0 mg/kg/injection, schedule: Q01DX010 (sc), vehicle: saline): 88 % of control
T/C (dose: 1600.0 mg/kg/injection, schedule: Q01DX010 (sc), vehicle: saline): 78 % of control and 103 % of control
T/C (dose: 3200.0 mg/kg/injection, schedule: Q01DX010 (sc), vehicle: saline): 104 % of control
T/C (dose: 6400.0 mg/kg/injection, schedule: Q01DX010 (sc), vehicle: saline): 58 % of control

COc1cccc2c1C(=O)c1c(O)c3c(c(O)c1C2=O)C[C@@](O)(/C(C)=N/NC(=O)c1ccc(Cl)cc1)C[C@@H]3OC1CC(N)C(O)C(C)O1 (some centres not stated)
T/C (dose: 1.0 mg/kg/injection, schedule: Q01DX010 (sc), vehicle: water): 58 % of control
T/C (dose: 4.0 mg/kg/injection, schedule: Q01DX010 (sc), vehicle: water): 84 % of control and 109 % of control
T/C (dose: 16.0 mg/kg/injection, schedule: Q01DX010 (sc), vehicle: water): 49 % of control

O=NNc1ccccn1
T/C (dose: 1.0 mg/kg/injection, schedule: Q01DX010 (sc), vehicle: saline): 78 % of control
T/C (dose: 2.0 mg/kg/injection, schedule: Q01DX010 (sc), vehicle: saline): 86 % of control
T/C (dose: 3.13 mg/kg/injection, schedule: Q01DX010 (sc), vehicle: saline): 20 % of control
T/C (dose: 4.0 mg/kg/injection, schedule: Q01DX010 (sc), vehicle: saline): 163 % of control
T/C [4]: 50 % of control and 72 % of control
T/C (dose: 8.0 mg/kg/injection, schedule: Q04DX003 (sc), vehicle: saline): 103 % of control
T/C [5]: 1 % of control
T/C (dose: 64.0 mg/kg/injection, schedule: Q01DX010 (sc), vehicle: saline): -87 % of control

CC1CN1P1(N2CC2C)=NP(N2CC2C)(N2CC2C)=NP(N2CC2C)(N2CC2C)=N1 (configuration not stated)
T/C (dose: 18.75 mg/kg/injection, schedule: Q01DX010 (sc), vehicle: saline): 70 % of control
T/C [5]: 50 % of control
T/C (dose: 37.5 mg/kg/injection, schedule: Q01DX010 (sc), vehicle: saline): 41 % of control
T/C [2]: 26 % of control
T/C (dose: 75.0 mg/kg/injection, schedule: Q01DX010 (sc), vehicle: saline): 4 % of control
T/C [3]: -7 % of control
T/C (dose: 150.0 mg/kg/injection, schedule: Q04DX003 (sc), vehicle: saline): 13 % of control

O=c1[nH]cnc2[nH]ncc12
T/C [1]: 46 % of control
T/C (dose: 300.0 mg/kg/injection, schedule: Q04DX003 (sc), vehicle: suspension in saline): 44 % of control
T/C (dose: 600.0 mg/kg/injection, schedule: Q04DX003 (sc), vehicle: suspension in saline): 119 % of control
T/C (dose: 1200.0 mg/kg/injection, schedule: Q04DX003 (sc), vehicle: suspension in saline): 112 % of control

CCOC(=O)c1ccc(NC(=O)Nc2nncs2)cc1
T/C (dose: 50.0 mg/kg/injection, schedule: Q01DX010 (sc), vehicle: distilled water + Tween-80): 44 % of control
T/C (dose: 100.0 mg/kg/injection, schedule: Q01DX010 (sc), vehicle: saline with Tween-80): 65 % of control
T/C (dose: 200.0 mg/kg/injection, schedule: Q01DX010 (sc), vehicle: saline with Tween-80): 62 % of control
T/C (dose: 400.0 mg/kg/injection, schedule: Q01DX010 (sc), vehicle: saline with Tween-80): 65 % of control
T/C (dose: 800.0 mg/kg/injection, schedule: Q01DX010 (sc), vehicle: distilled water + Tween-80): 120 % of control
T/C (dose: 800.0 mg/kg/injection, schedule: Q01DX010 (sc), vehicle: saline with Tween-80): 37 % of control

C1CCC2C[N-]CCC2C1.C1CCC2C[N-]CCC2C1.C1CCC2C[N-]CCC2C1.C1CCC2C[N-]CCC2C1.[Cl][Rh][Cl] (configuration not stated)
T/C (dose: 18.0 mg/kg/injection, schedule: Q04DX003 (sc), vehicle: saline with Tween-80): 107 % of control
T/C (dose: 36.0 mg/kg/injection, schedule: Q04DX003 (sc), vehicle: saline with Tween-80): 103 % of control
T/C (dose: 72.0 mg/kg/injection, schedule: Q04DX003 (sc), vehicle: saline with Tween-80): 86 % of control
T/C (dose: 144.0 mg/kg/injection, schedule: Q04DX003 (sc), vehicle: saline with Tween-80): 78 % of control

O=C(Nc1cccc2c(OC(=O)C(Cl)Cl)c(N=Nc3ccc(S(=O)(=O)Nc4nccs4)cc3)cc(N=Nc3ccc(S(=O)(=O)Nc4nccs4)cc3)c12)C(Cl)Cl (tested in a mixture with another compound)
T/C [6]: 111 % of control
T/C [7]: 103 % of control
T/C [8]: 109 % of control
T/C [9]: 109 % of control

CCCCCC(=O)O[C@]1(C(C)=O)CC[C@H]2[C@@H]3CCC4=CC(=O)CC[C@]4(C)[C@H]3CC[C@@]21C
T/C (dose: 600.0 mg/kg/injection, schedule: Q04DX003 (sc), vehicle: Klucel (hydroxypropylcellulose) (HPC)): 98 % of control
T/C (dose: 2400.0 mg/kg/injection, schedule: Q04DX003 (sc), vehicle: Klucel (hydroxypropylcellulose) (HPC)): 85 % of control

Nc1ncnc2c1ccn2C1OC(CO)C(O)C1O (configuration not stated)
T/C (dose: 1.0 mg/kg/injection, schedule: Q01DX010 (sc), vehicle: Klucel (hydroxypropylcellulose) (HPC)): 101 % of control
T/C (dose: 2.0 mg/kg/injection, schedule: Q01DX010 (sc), vehicle: Klucel (hydroxypropylcellulose) (HPC)): 157 % of control
T/C (dose: 4.0 mg/kg/injection, schedule: Q01DX010 (sc), vehicle: Klucel (hydroxypropylcellulose) (HPC)): 75 % of control

C1CCC(NC2CCCCC2)CC1
T/C (dose: 75.0 mg/kg/injection, schedule: Q04DX003 (ip), vehicle: saline): 119 % of control
T/C (dose: 150.0 mg/kg/injection, schedule: Q04DX003 (ip), vehicle: saline): 174 % of control

COC(=O)C(CSC(c1ccccc1)(c1ccccc1)c1ccccc1)NC(=O)C(CC(N)=O)NC(=O)OCc1ccccc1 (stereo not drawn) (Cbz-Asn-Cys(Trt)-OMe; configuration not given here)
T/C (dose: 300.0 mg/kg/injection, schedule: Q04DX003 (sc), vehicle: distilled water + Tween-80): 97 % of control
T/C (dose: 600.0 mg/kg/injection, schedule: Q04DX003 (sc), vehicle: distilled water + Tween-80): 77 % of control
T/C (dose: 1200.0 mg/kg/injection, schedule: Q04DX003 (sc), vehicle: distilled water + Tween-80): 78 % of control
T/C (dose: 2400.0 mg/kg/injection, schedule: Q04DX003 (sc), vehicle: distilled water + Tween-80): 94 % of control

Cc1cc(N(CCOS(C)(=O)=O)CCOS(C)(=O)=O)ccc1C=Nc1ccc(-c2nc(Cc3ccccc3)sc2C)cc1
T/C (dose: 50.0 mg/kg/injection, schedule: Q01DX010 (sc), vehicle: Klucel (hydroxypropylcellulose) (HPC)): -79 % of control
T/C (dose: 100.0 mg/kg/injection, schedule: Q01DX010 (sc), vehicle: Klucel (hydroxypropylcellulose) (HPC)): -88 % of control
T/C (dose: 200.0 mg/kg/injection, schedule: Q01DX010 (sc), vehicle: Klucel (hydroxypropylcellulose) (HPC)): -87 % of control

COc1cc(C)c2c(c1C=O)Oc1c(c(C)c(O)c3c1C(O)OC3=O)OC2=O (configuration not stated)
T/C [4]: 90 % of control
T/C (dose: 12.5 mg/kg/injection, schedule: Q01DX010 (sc), vehicle: saline): 62 % of control and 78 % of control
T/C [5]: 96 % of control and 118 % of control
T/C [2]: 67 % of control and 88 % of control
T/C [3]: 98 % of control

N#CCCSC(=S)C1CCCC1=N (configuration not stated)
T/C [6]: 76 % of control
T/C [7]: 87 % of control
T/C [8]: 76 % of control
T/C [9]: 85 % of control

CCC(C)Nc1ccc(N)cc1 (configuration not stated)
T/C (dose: 4.5 mg/kg/injection, schedule: Q04DX003 (sc), vehicle: Klucel (hydroxypropylcellulose) (HPC)): 50 % of control
T/C (dose: 18.0 mg/kg/injection, schedule: Q04DX003 (sc), vehicle: Klucel (hydroxypropylcellulose) (HPC)): 76 % of control

CC(=O)[C@]1(O)Cc2c(O)c3c(c(O)c2[C@@H](OC2CC(N)C(O)C(C)O2)C1)C(=O)c1c(O)cccc1C3=O (some centres not stated)
T/C (dose: 0.25 mg/kg/injection, schedule: Q01DX010 (sc), vehicle: saline): 167 % of control
T/C (dose: 0.5 mg/kg/injection, schedule: Q01DX010 (sc), vehicle: saline): 68 % of control

Source: PubChem BioAssay AID296 (DTP/NCI, 2004)
